Experimental data from ChEMBL document CHEMBL4483862, “Open-source discovery of chemical leads for next-generation chemoprotective antimalarials” (2018).

Tested on: Plasmodium berghei
Assay: Luciferase/luciferin-expressing antifolate-resistant parasites were used to infect a culture of HepG2 cells that were pre-incubated with compounds. Infected hepatocytes emit light due to the luciferase reaction. Assay results are presented as the percent inhibition of light emission compared to control. […]
Format: functional
Conditions: sporozoite; for IC90: read-out: LUCIFERASE INFECTION ASSAY - IC90

| Compound | IC90 | also measured |
| --- | --- | --- |
| CC(C)(C)c1cc(CCC(=O)NNC(=S)NC(=O)c2ccccc2)cc(C(C)(C)C)c1O | 3.76 µM | IC50 (HEPG2TOX_HILL_SLOPE 3.85, HEPG2TOX_R_SQUARED 0.996, PBLUC_HILL_SLOPE 11.4, PBLUC_R_SQUARED 0.664, read-out: LUCIFERASE INFECTION ASSAY - IC50): 3.1 µM |
| Cc1ccc(C(C)C)c(Oc2nnnn2-c2ccccc2)c1 | 4.38 µM | IC50 (HEPG2TOX_HILL_SLOPE 3.94, HEPG2TOX_R_SQUARED 0.78, PBLUC_HILL_SLOPE 282, PBLUC_R_SQUARED 0.16, read-out: LUCIFERASE INFECTION ASSAY - IC50): 4.34 µM |
| CC(C)Nc1ccc(Nc2ccccc2)cc1 | 3.79 µM | IC50 (HEPG2TOX_HILL_SLOPE 3.79, HEPG2TOX_R_SQUARED 0.984, PBLUC_HILL_SLOPE 20.8, PBLUC_R_SQUARED 0.712, read-out: LUCIFERASE INFECTION ASSAY - IC50): 3.41 µM |
| O=C1C(Cl)=C(Nc2ccccc2)C(=O)c2ccccc21 | > 11.6 µM | IC50 (HEPG2TOX_HILL_SLOPE 3.85, HEPG2TOX_R_SQUARED 0.988, PBLUC_HILL_SLOPE 1.86, PBLUC_R_SQUARED 0.682, read-out: LUCIFERASE INFECTION ASSAY - IC50): 3.78 µM |
| Cc1cccc(NC2=C(Cl)C(=O)c3ccccc3C2=O)c1 | 1.4 µM | IC50 (HEPG2TOX_HILL_SLOPE 3.88, HEPG2TOX_R_SQUARED 0.992, PBLUC_HILL_SLOPE 14.7, PBLUC_R_SQUARED 0.858, read-out: LUCIFERASE INFECTION ASSAY - IC50): 1.2 µM |
| CNc1nc2cnc(Nc3ccc(C(C)C)cc3)cc2n1-c1cc(OC)c(OC)c(OC)c1 | > 10 µM | IC50 (HEPG2TOX_HILL_SLOPE 3.92, HEPG2TOX_R_SQUARED 0.032, PBLUC_HILL_SLOPE 0.581, PBLUC_R_SQUARED 0.333, read-out: LUCIFERASE INFECTION ASSAY - IC50): > 10 µM |
| COc1ccc(/C=C2\CSc3ccc(Cl)cc3C2=O)cc1 | 5.42 µM | IC50 (HEPG2TOX_HILL_SLOPE 3.81, HEPG2TOX_R_SQUARED 0.977, PBLUC_HILL_SLOPE 10.6, PBLUC_R_SQUARED 0.089, read-out: LUCIFERASE INFECTION ASSAY - IC50): 4.41 µM |
| CC(C)CCCC(C)C1CCC2(C)C3=C(CCC12C)C1(C)CCC(=O)C(C)(C)C1CC3 (configuration not stated) | 6.57 µM | IC50 (HEPG2TOX_HILL_SLOPE 3.93, HEPG2TOX_R_SQUARED 0.974, PBLUC_HILL_SLOPE 2.18, PBLUC_R_SQUARED 0.307, read-out: LUCIFERASE INFECTION ASSAY - IC50): 2.4 µM |
| Cc1ccc(Nc2ccc(-c3nc4ccccc4[nH]3)cn2)cc1C | 4.25 µM | IC50 (HEPG2TOX_HILL_SLOPE 3.79, 0.829, HEPG2TOX_R_SQUARED 0.701, 0.968, PBLUC_HILL_SLOPE 2.85, 14.2, PBLUC_R_SQUARED 0.393, 0.513, read-out: LUCIFERASE INFECTION ASSAY - IC50): 2.27 µM |
| COc1ccc(-c2csc3ncnc(Sc4nnnn4CC4CCCO4)c23)cc1 (configuration not stated) | > 10 µM | IC50 (HEPG2TOX_HILL_SLOPE 3.82, HEPG2TOX_R_SQUARED 0.683, PBLUC_HILL_SLOPE 2.52, PBLUC_R_SQUARED 0.576, read-out: LUCIFERASE INFECTION ASSAY - IC50): 6.48 µM |
| O=C(NC1CCCC1)c1ccc(-c2cn3c(-c4ccc(Cl)cc4)cnc3cn2)cc1 | 3.49 µM | IC50 (HEPG2TOX_HILL_SLOPE 3.94, HEPG2TOX_R_SQUARED 0.381, PBLUC_HILL_SLOPE 3.66, PBLUC_R_SQUARED 0.738, read-out: LUCIFERASE INFECTION ASSAY - IC50): 1.91 µM |
| Cc1cc(Cl)c(C)c(S(=O)(=O)N(C)C(C)c2ccc(S(N)(=O)=O)cc2)c1Cl (configuration not stated) | > 10 µM | IC50 (HEPG2TOX_HILL_SLOPE 3.91, HEPG2TOX_R_SQUARED 0.817, PBLUC_HILL_SLOPE 1.91, PBLUC_R_SQUARED 0.506, read-out: LUCIFERASE INFECTION ASSAY - IC50): 6.84 µM |
| COc1ccc(O)c(/C=N/Nc2ncc(C(F)(F)F)cc2Cl)c1 | 3.73 µM | IC50 (HEPG2TOX_HILL_SLOPE 3.8, HEPG2TOX_R_SQUARED 0.813, PBLUC_HILL_SLOPE 18.3, PBLUC_R_SQUARED 0.305, read-out: LUCIFERASE INFECTION ASSAY - IC50): 3.31 µM |
| CCOc1ccccc1NS(=O)(=O)c1ccc(C(=O)OC)cc1 | > 10 µM | IC50 (HEPG2TOX_HILL_SLOPE 3.9, HEPG2TOX_R_SQUARED 0.853, PBLUC_HILL_SLOPE 3.26, PBLUC_R_SQUARED 0.571, read-out: LUCIFERASE INFECTION ASSAY - IC50): 7.52 µM |
| O=C(Nc1ccccc1O)c1ccccc1NS(=O)(=O)c1ccc(Cl)s1 | 7.2 µM | IC50 (HEPG2TOX_HILL_SLOPE 3.8, HEPG2TOX_R_SQUARED 0.66, PBLUC_HILL_SLOPE 5.25, PBLUC_R_SQUARED 0.554, read-out: LUCIFERASE INFECTION ASSAY - IC50): 4.74 µM |
| CCCCNC(=O)NC(=O)CNc1cc(S(=O)(=O)N2CCCCC2)ccc1OCC | > 10 µM | IC50 (HEPG2TOX_HILL_SLOPE 3.87, HEPG2TOX_R_SQUARED 0.807, PBLUC_HILL_SLOPE 2.62, PBLUC_R_SQUARED 0.78, read-out: LUCIFERASE INFECTION ASSAY - IC50): 5.03 µM |

| Compound | IC90 | also measured |
| --- | --- | --- |
| COc1cccc(-c2cnn3ccc(Nc4ccc(OC)nc4)nc23)c1 | 3.86 µM | IC50 (HEPG2TOX_HILL_SLOPE 3.92, HEPG2TOX_R_SQUARED 0.974, PBLUC_HILL_SLOPE 24.4, PBLUC_R_SQUARED 0.48, read-out: LUCIFERASE INFECTION ASSAY - IC50): 3.53 µM |
| CC(C)c1ccc(N2C(=O)/C(=C\c3ccccc3OCc3ccccn3)NC2=S)cc1 | 3.92 µM | IC50 (HEPG2TOX_HILL_SLOPE 3.89, HEPG2TOX_R_SQUARED 0.964, PBLUC_HILL_SLOPE 2.57, PBLUC_R_SQUARED 0.661, read-out: LUCIFERASE INFECTION ASSAY - IC50): 1.67 µM |
| COc1ccccc1Nc1ncccc1C(=O)Nc1nc2ccccc2[nH]1 | 3.78 µM | IC50 (HEPG2TOX_HILL_SLOPE 3.87, HEPG2TOX_R_SQUARED 0.988, PBLUC_HILL_SLOPE 17.6, PBLUC_R_SQUARED 0.638, read-out: LUCIFERASE INFECTION ASSAY - IC50): 3.34 µM |
| C=C1CC2(C)C(=CC1=O)CCC1C2CCC2(C)C(O)CCC12 (configuration not stated) | 5.89 µM | IC50 (HEPG2TOX_HILL_SLOPE 3.95, HEPG2TOX_R_SQUARED 0.554, PBLUC_HILL_SLOPE 10.4, PBLUC_R_SQUARED 0.356, read-out: LUCIFERASE INFECTION ASSAY - IC50): 4.77 µM |
| C[C@]12CC[C@H](O)C[C@H]1CCC1C2[C@H](O)C[C@]2(C)[C@@H](C3=CC(=O)OC3)CC[C@]12O (some centres not stated) | > 8.45 µM | IC50 (HEPG2TOX_HILL_SLOPE 3.83, HEPG2TOX_R_SQUARED 0.791, PBLUC_HILL_SLOPE 2.47, PBLUC_R_SQUARED 0.389, read-out: LUCIFERASE INFECTION ASSAY - IC50): 3.98 µM |
| COc1ccc(CNc2ccc3ncc(-c4ccc(Cl)cc4)n3n2)cc1 | 4.67 µM | IC50 (HEPG2TOX_HILL_SLOPE 3.82, HEPG2TOX_R_SQUARED 0.951, PBLUC_HILL_SLOPE 9.74, PBLUC_R_SQUARED 0.491, read-out: LUCIFERASE INFECTION ASSAY - IC50): 3.73 µM |
| CC(C)c1ccc(Nc2ccn3ncc(-c4cccc(N)c4)c3n2)cc1 | > 9.61 µM | IC50 (HEPG2TOX_HILL_SLOPE 3.91, HEPG2TOX_R_SQUARED 0.953, PBLUC_HILL_SLOPE 9.39, PBLUC_R_SQUARED 0.444, read-out: LUCIFERASE INFECTION ASSAY - IC50): 8 µM |
| CN(C)Cc1ccc(CNC(=O)Cc2ccc(-c3ccccc3)cc2)cc1 | 7.76 µM | IC50 (HEPG2TOX_HILL_SLOPE 3.86, HEPG2TOX_R_SQUARED 0.943, PBLUC_HILL_SLOPE 3.55, PBLUC_R_SQUARED 0.451, read-out: LUCIFERASE INFECTION ASSAY - IC50): 4.18 µM |
| Cn1nnnc1Sc1ccc([N+](=O)[O-])c2cnccc12 | 3.42 µM | IC50 (HEPG2TOX_HILL_SLOPE 3.78, HEPG2TOX_R_SQUARED 0.957, PBLUC_HILL_SLOPE 12.7, PBLUC_R_SQUARED 0.328, read-out: LUCIFERASE INFECTION ASSAY - IC50): 2.88 µM |
| N#CC(C#N)=NNc1ccc(-c2ccccc2)cc1 | > 10 µM | IC50 (HEPG2TOX_HILL_SLOPE 3.84, HEPG2TOX_R_SQUARED 0.689, PBLUC_HILL_SLOPE 2.62, PBLUC_R_SQUARED 0.817, read-out: LUCIFERASE INFECTION ASSAY - IC50): 4.72 µM |
| CNc1cc(-c2ccc(O)cc2C)nc2ccnn12 | 8.61 µM | IC50 (HEPG2TOX_HILL_SLOPE 3.86, HEPG2TOX_R_SQUARED 0.988, PBLUC_HILL_SLOPE 1.91, PBLUC_R_SQUARED 0.706, read-out: LUCIFERASE INFECTION ASSAY - IC50): 2.73 µM |
| CNc1snc(C)c1C(=O)N(C)Cc1ccc(C(C)C)cc1 | 0.0634 µM | IC50 (HEPG2TOX_HILL_SLOPE 3.83, HEPG2TOX_R_SQUARED 0.742, PBLUC_HILL_SLOPE 1.58, PBLUC_R_SQUARED 0.865, read-out: LUCIFERASE INFECTION ASSAY - IC50): 0.0158 µM |
| CCCNC(=O)c1c(NC(=O)c2ccc(CC)cc2)nc2ccccn12 | 3.4 µM | IC50 (HEPG2TOX_HILL_SLOPE 3.85, HEPG2TOX_R_SQUARED 0.726, PBLUC_HILL_SLOPE 11.9, PBLUC_R_SQUARED 0.398, read-out: LUCIFERASE INFECTION ASSAY - IC50): 2.83 µM |
| COc1ccc(CC(=O)NCc2ccccc2Cl)cc1 | > 11.4 µM | IC50 (HEPG2TOX_HILL_SLOPE 3.79, HEPG2TOX_R_SQUARED 0.83, read-out: LUCIFERASE INFECTION ASSAY - IC50): > 11.4 µM |
| COc1cc(Nc2ccn3ncc(-c4ccc(N)cc4)c3n2)cc(OC)c1OC | 3.83 µM | IC50 (HEPG2TOX_HILL_SLOPE 3.9, HEPG2TOX_R_SQUARED 0.655, PBLUC_HILL_SLOPE 12, PBLUC_R_SQUARED 0.445, read-out: LUCIFERASE INFECTION ASSAY - IC50): 3.19 µM |
